Laboratory results published in patent publication US7994164B2, “Mineralocorticoid receptor antagonists and methods of use” (Eli Lilly and Company, priority 2007, dated 2011).

Legend:
human MR = biological target: T1, human MR (Homo sapiens, UniProt P08235); assay: hMR competitive antagonist assay (luciferase reporter, Schild analysis); format: cell-based
T1 construct: expressed in transfected cells; host or cells: HEK293, transient transfection with a CMV-driven plasmid and a GRE-TK-luciferase reporter
T1 sequence (P08235 1-984): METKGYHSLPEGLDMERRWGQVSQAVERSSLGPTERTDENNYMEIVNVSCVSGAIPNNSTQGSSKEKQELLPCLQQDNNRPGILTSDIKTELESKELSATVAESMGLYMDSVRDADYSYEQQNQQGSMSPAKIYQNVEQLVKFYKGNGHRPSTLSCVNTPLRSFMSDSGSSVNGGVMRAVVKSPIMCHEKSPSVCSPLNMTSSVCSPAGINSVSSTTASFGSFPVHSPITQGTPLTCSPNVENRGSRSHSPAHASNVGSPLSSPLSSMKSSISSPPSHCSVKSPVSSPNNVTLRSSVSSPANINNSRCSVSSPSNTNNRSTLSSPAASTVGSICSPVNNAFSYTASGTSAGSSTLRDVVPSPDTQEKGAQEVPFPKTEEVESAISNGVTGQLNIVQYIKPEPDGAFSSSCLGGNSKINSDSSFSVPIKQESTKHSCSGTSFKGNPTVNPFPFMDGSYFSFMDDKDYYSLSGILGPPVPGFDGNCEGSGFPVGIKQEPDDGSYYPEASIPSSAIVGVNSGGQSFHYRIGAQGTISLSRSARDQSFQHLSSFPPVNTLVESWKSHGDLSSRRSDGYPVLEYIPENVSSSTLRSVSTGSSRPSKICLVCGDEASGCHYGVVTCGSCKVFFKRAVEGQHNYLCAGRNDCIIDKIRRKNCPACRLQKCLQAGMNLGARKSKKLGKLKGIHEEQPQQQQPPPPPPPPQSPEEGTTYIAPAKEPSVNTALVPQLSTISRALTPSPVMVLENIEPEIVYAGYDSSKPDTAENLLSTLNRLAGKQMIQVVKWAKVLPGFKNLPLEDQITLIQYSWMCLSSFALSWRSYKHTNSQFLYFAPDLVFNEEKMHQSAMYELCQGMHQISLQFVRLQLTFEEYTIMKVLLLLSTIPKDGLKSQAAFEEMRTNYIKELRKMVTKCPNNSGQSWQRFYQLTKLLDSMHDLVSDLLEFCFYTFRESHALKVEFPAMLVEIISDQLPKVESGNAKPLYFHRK
Description: Human embryonic kidney HEK293 cells are transfected with steroid hormone receptor and reporter gene plasmids using a suitable transfection reagent such as Fugene™. Briefly, the reporter plasmid containing two copies of probasin ARE and TK (thymidine kinase) promoter upstream of the luciferase reporter cDNA, is transfected into HEK293 cells with a plasmid constitutively expressing human androgen receptor (AR) using viral CMV (cytomegalovirus) promoter. The reporter plasmid containing two copies of GRE and TK promoter upstream of the luciferase reporter cDNA is transfected with a plasmid constitutively expressing either human glucocorticoid receptor (GR), human mineralocorticoid receptor (MR), or human progesterone receptor (PR) using viral CMV promoter. Cells are transfected in T150 cm flasks in DMEM media with 5% charcoal-stripped Fetal Bovine Serum (FBS). After an overnight incubation, transfected cells are trypsinized, plated in 96 well dishes in DMEM media containing 5% charcoal-stripped FBS, incubated for 4 hours and then exposed to various concentrations of test compounds ranging from about 0.01 nM to 10 μM. […] After 24 hours incubation with test compounds, cells are lysed and luciferase activity is determined using standard techniques.
Human embryonic kidney HEK293 cells are transfected with human MR using the same transfection reagents, plasmids, promoters, reporter constructs, buffers, and procedures as described above for the Nuclear Hormone Receptor Panel Screen.

[1] = system: uni-nephrectomized Sprague Dawley rats; assay: In vivo model of aldosterone mediated renal disease; settings: 10 mg/kg/day x 14 days, oral gavage, aldosterone-infused rats; average of n=8
Method: Male uni-nephrectomized Sprague Dawley rats (240-280 g) are housed individually with ad lib house water and rodent 5001 diet for one week. After acclimation, baseline 24 h urine samples are collected and analyzed for total urine protein and creatinine. Animals are randomized via body weight and baseline urine protein into study groups. Baseline serum is taken by tail-clip and analyzed for blood urea nitrogen (BUN), creatinine, and electrolytes. After baseline samples are taken, all rats with the exception of the control group are maintained on a diet containing 6% salt, and drinking water containing 0.3% KCl throughout the study duration. […] Alza mini-pumps to deliver 2.5 μl/h×28 days of d-aldosterone in 0.01% DMSO at 0.75 μg/h, s.c. are implanted in non-control animals (e.g Test Compound group and Vehicle only group) under isoflourane anesthesia. […] Repeat urine samples are collected after 2 and 4 weeks of compound or vehicle alone administration and analyzed for total urine protein and creatinine. At study termination, pharmacokinetic samples are obtained at 8 timepoints (0.5, 1, 2, 3, 6, 8, 12 and 24 h). In addition, hearts and kidneys are removed and fixed in 10% buffered formalin for haematoxylin and eosin (H&E) and Masson's trichrome staining to detect structural damage in cardiac and renal tissues. Serum is taken by cardiac puncture at study termination for additional analysis of serum BUN, creatinine, and electrolytes.

[2] = biological target: T2, human MR (mineralocorticoid receptor) (Homo sapiens, UniProt P08235); assay: Steroid hormone nuclear receptor binding assay (MR binding); settings: HEK293 lysate overexpressing human MR, [3H]-aldosterone; individual values geometric mean of n=2
T2 construct: expressed in transfected cells; host or cells: HEK293 (lysate, '293-MR lysate')
T2 sequence (P08235 1-984): T1 sequence (P08235 1-984)
Method: Cell lysates from human embryonic kidney HEK293 cells overexpressing human MR (mineralocorticoid receptor), GR (glucocorticoid receptor), AR (androgen receptor), or PR (progesterone receptor) are used for receptor-ligand competition binding assays to determine Ki values.
Briefly, steroid receptor competition binding assays are run in a buffer containing 20 mM HEPES buffer (pH=7.6), 0.2 mM EDTA, 75 mM NaCl, 1.5 mM MgCl2, 20% glycerol, 20 mM sodium molybdate, 0.2 mM DTT (dithiothreitol), 20 μg/mL aprotinin and 20 μg/mL leupeptin (assay buffer). Typically, steroid receptor binding assays include radio-labeled ligands, such as 0.25 nM [^3H]-aldosterone for MR binding, 0.3 nM [^3H]-dexamethasone for GR binding, 0.36 nM [^3H]-methyltrienolone for AR binding, and 0.29 nM [^3H]-methyltrienolone for PR binding, and either 20 μg 293-MR lysate, 20 μg 293-GR lysate, 22 μg 293-AR lysate, or 40 μg 293-PR lysate per well. Assays are typically run in 96-well format. Competing test compounds are added at various concentrations ranging from about 0.01 nM to 10 μM. […] The binding reactions (140 μL) are incubated overnight at 4° C., then 70 μL of cold charcoal-dextran buffer (containing per 50 mL of assay buffer, 0.75 g of charcoal and 0.25 g of dextran) is added to each reaction. Plates are mixed for 8 minutes on an orbital shaker at 4° C. The plates are then centrifuged at 3,000 rpm at 4° C. for 10 minutes. An aliquot of 120 μL of the binding reaction mixture is then transferred to another 96-well plate and 175 μL of Wallac Optiphase Hisafe 3™ scintillation fluid is added to each well. Plates are sealed and shaken vigorously on an orbital shaker. After an incubation of 2 hours, plates are read in a Wallac Microbeta counter.
The Kd for [^3H]-aldosterone for MR binding, [^3H]-dexamethasone for GR binding, [^3H]-methyltrienolone for AR binding, or [^3H]-methyltrienolone for PR binding, is determined by saturation binding. The IC50 values for compounds are converted to Ki using the Cheng-Prusoff equation.

| Kb (human MR) | Ki [2] | SMILES | reduced urinary protein excretion compared to vehicle treated animals [1] |
| --- | --- | --- | --- |
| ~1.1 nM | ~0.08 nM | CN1CCN(n2/c(=N/C#N)[nH]c3cc(/C=C4\c5ccccc5COc5cc(F)ccc54)ccc32)CC1 [Example 8, (E)-N-(5-((E)-3-Fluoro-6H-dibenzo[b,e]oxepin-11-ylidenemethyl)-1-(4-methyl-piperazin-1-yl)-1,3-dihydro-benzoimidazol-2-ylidene)-cyanamide] | ~83 mg/day |
| ~1.2 nM | ~0.79 nM | C[C@H](CN1CCOCC1)n1/c(=N/C#N)[nH]c2cc(/C=C3\c4ccc(F)cc4COc4cc(F)ccc43)ccc21 [Example 1, (E)-N—((R)-5-((E)-3,8-Difluoro-6H-dibenzo[b,e]oxepin-11-ylidenemethyl)-1-(1-methyl-2-morpholin-4-yl-ethyl)-1,3-dihydro-benzoimidazol-2-ylidene)-cyanamide] | about 49 mg/day |
| ~2.5 nM | ~0.23 nM | N#C/N=c1\[nH]c2cc(/C=C3/c4ccc(F)cc4OCc4c(F)cccc43)ccc2n1[C@H]1C[C@@H]2COCCN2C1 [Example 23, (E)-N-(5-((E)-3,7-Difluoro-6H-dibenzo[b,e]oxepin-11-ylidenemethyl)-1-((7S, 8aR)-hexahydro-pyrrolo[2,1-c][1,4]oxazin-7-yl)-1,3-dihydro-benzoimidazol-2-ylidene)-cyanamide] | ~64 mg/day |
